In one test the target is cdk1/cyclin B (CDC2) (Homo sapiens, UniProt P06493). The test is described as follows: CDK inhibition assay, cdk1/cyclin B (CDC2) kinase, histone phosphorylation. It is filed as biochemical. Conditions: cell free system (Table 8). The method in brief:
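Human cdk1/cyclin B activity measured with 1 mg/ml histone substrate, 15 μM ATP plus [γ-32P]ATP, in HEPES pH 7.4 buffer with 10 mM MgCl2. Phosphorylation quantified by phosphorimaging; activity expressed as % of maximum, IC50 from dose-response curves by graphic analysis.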

The test system of test [1] is PHA-stimulated lymphocytes (PBMC). The test can be described thus: Proliferation of PHA-stimulated lymphocytes (PBMC), flow cytometric cell count. It is filed as cell-based, human. Conditions: 96 hours, IL-2. The protocol: Peripheral blood mononuclear cells (PBMC): Human peripheral blood mononuclear cells were isolated by density gradient (Ficoll-Hypaque) (LSM, ICN Biomedicals Inc.). PBMC were stimulated with 5 μg/ml phytohemaglutinin A (PHA) (Sigma) during 24-48 hours in IMDM supplemented with 10% FCS at 37° C. After washing off the PHA, PBMC were incubated with interleukin-2 (IL-2) (10 U/ml) (Genzyme).
(§1) Cells were plated at 10000 per well in 200 μl IMDM medium and incubated with 0-50 μM of the novel compounds (Tab 8), by addition of drug directly to the culture medium and incubated at 37° C. for 96 hours (Tab 8). Absolute cell number was determined by addition of a known concentration Fluoresbrite microspheres (FITC) (Polysciences, Inc.). The absolute number of cells/well was calculated as: {(total number of beads added/well)/(number of beads measured)×(number of measured cells in the gate of interest)}. All analyses were performed with a FACScan (BD), using CELLQuest software (Becton Dickinson).
PHA-stimulated lymphocytes (PBMC) were tested for their cytotoxicity as one of the normal counterparts of the cell lines. Cells were grown for 96 hours in the presence of IL-2 and different concentrations of the novel compounds and cell number was counted on the flow cytometer.

Test [2] concerns myeloid leukemia KG1 cell line. The test is described as follows: Cell proliferation of KG1, flow cytometric cell count. Type of test: cell-based, human. Conditions: for Recovery of cell number after wash-out: washed free after 6 hours of exposure, 7 days drug-free medium. The protocol: (§2) Cell lines: Human leukemic cell lines were obtained from the American Type Culture Collection (ATCC, Rockville, Md., USA). They were cultured in Iscove's Modified Dulbecco's Medium (IMDM) supplemented with 10% heat inactivated fetal calf serum (FCS), 200 U/ml penicillin, 200 μg/ml streptomycin and 1 μg/ml amphotericin B. Cells were cultured in a 5% CO2-95% air fully humidified incubator. For effects on clonogenic output, 1000 cells/well were plated in duplicate in methylcellulose (0.9%), supplemented with 20% FCS for 14 days.
as §1
(§3) Response of the myeloid leukemia KG1 and T-lymphocyte leukemia Molt3 cell lines to the cytostatic effect of the novel compounds was determined using the above-mentioned standardized bead suspension that was used to determine the absolute cell number by flow cytometric (FCM) measurement. Cells were grown in the presence of increasing concentration of the novel compounds.
To determine reversibility of the effects of the novel compounds, cells were plated at 10000 per well and exposed to 0-50 μM of the compounds for the time indicated, followed by washing in phosphate-buffered saline (PBS) (Life Technologies) and reseeded into drug-free medium for 7 additional days. An identical set of cells was plated and exposed to the drugs for 7 additional days. After 7 days (168 hours), the relative cell number was assayed by flow cytometry.
For orientation: A flow cytometer gives signals particle by particle.

Test [3] concerns T-lymphocyte leukemia Molt3 cell line. The test can be described thus: Cell proliferation of Molt3, flow cytometric cell count. It is filed as cell-based, human. The following applies: 96 hours. As to the method:
as §2, §1, §3

In another test the test system is KG1 cells. The test is described as follows: Induction of apoptosis in tumor cells (microscopy, flow cytometry). It is filed as cell-based, human. Conditions: for Speed of apoptosis induction: scored after 6, 12, 24, 48 and 72 hours. As to the method: Microscopy: Nuclear morphology of the cells was analyzed with the fluorochromes Hoechst 33342 (λEx max 346 nm; λEm max 460 nm) (Sigma) prepared in phosphate-buffered saline (PBS at 0.1 mg/ml, added to the culture medium at a final concentration of 2 μg/ml and ethidium homodimer (EB) (λEx max 540 nm; λEm max 625 nm) (Sigma) prepared in PBS at 100 μg/ml and added to the culture medium at a final concentration of 2 μg/ml (Lizard, 1995). Hundred cells were counted for each sample and percentage of apoptosis was determined.
TdT-mediated dUTP nick end labeling (TUNEL): Control and novel compound-treated cell cultures were washed with PBS and fixed in 1% buffered formaldehyde (pH 7.4) for 15 minutes on ice. After washing in PBS, cells were permeabilized in 70% cold (−20° C.) ethanol and transferred to 4° C. for at least 1 hour. After rehydratation in PBS, cells were labeled with 50 μl/well TUNEL reaction mixture (Boehringer Mannheim). Cells were incubated in this solution at 37° C. for 40 minutes, washed in PBS and resuspended in 500 μl PBS containing 5 μg/ml EB and 0.1% RNAse. After 30 minutes of incubation at 4° C., green (FITC-dUTP) and red (EB-DNA) fluorescence of individual cells was measured on a FACscan flow cytometer (Gorczyca, 1993). Negative control (fixed and permeabilized cells incubated with 50 μl label solution per well without terminal transferase, instead of TUNEL reaction mixture) and positive control (fixed and permeabilized cells incubated with DNase I (100 μg/ml) that induces DNA strand breaks) were included in each experimental set-up.
Viable, apoptotic, necrotic (=primary necrosis, not following apoptosis) and secondarily necrotic cells (=late apoptosis, evolving to necrosis) were scored differentially after 6, 12, 24, 48 and 72 hours of exposure to novel compounds. For the three products a different apoptosis-inducing pattern could be observed. Apoptosis induction occurs fast after incubation with 172 and 201 but slower after incubation with 98.
After 6 and 12 hours of incubation the apoptotic population seems mainly to evolve from S phase. […]

[4] abbreviates: continuous exposure, 7 days (168 hours), read-out: IC50, KG1 cells exposed continuously.

Read-outs that look alike come from different tables or passages of the source. Some results are limits rather than exact numbers.

cdk1/cyclin B (CDC2), sequence (P06493 whole entry, species assumed): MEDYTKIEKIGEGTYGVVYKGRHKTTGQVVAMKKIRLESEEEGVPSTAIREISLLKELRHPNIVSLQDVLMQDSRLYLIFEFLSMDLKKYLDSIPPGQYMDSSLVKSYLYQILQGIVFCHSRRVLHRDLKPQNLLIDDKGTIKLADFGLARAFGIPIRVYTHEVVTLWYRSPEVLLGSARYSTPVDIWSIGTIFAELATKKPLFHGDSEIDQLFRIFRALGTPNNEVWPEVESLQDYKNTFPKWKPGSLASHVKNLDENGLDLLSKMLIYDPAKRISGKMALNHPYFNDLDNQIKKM
cdk1/cyclin B (CDC2), sequence (P14635 whole entry partner, species assumed): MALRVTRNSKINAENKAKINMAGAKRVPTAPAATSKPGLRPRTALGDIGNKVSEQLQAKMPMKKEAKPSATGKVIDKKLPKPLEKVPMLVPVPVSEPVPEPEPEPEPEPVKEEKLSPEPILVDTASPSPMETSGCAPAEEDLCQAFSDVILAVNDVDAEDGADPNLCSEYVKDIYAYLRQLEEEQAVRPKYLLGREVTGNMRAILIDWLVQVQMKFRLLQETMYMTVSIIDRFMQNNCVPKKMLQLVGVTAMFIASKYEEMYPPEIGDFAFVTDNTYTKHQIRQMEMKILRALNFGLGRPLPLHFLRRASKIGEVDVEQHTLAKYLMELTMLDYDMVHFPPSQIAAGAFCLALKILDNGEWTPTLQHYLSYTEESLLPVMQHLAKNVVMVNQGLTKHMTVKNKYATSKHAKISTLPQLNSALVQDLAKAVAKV

The term IC50 denotes the point on the concentration scale where inhibition reaches its midpoint. Turning to “5-(3-aminopropylamino)-7-benzylamino-3-isopropylpyrazolo[4,3-d]pyrimidine [Compound 17]”, the IC50 was 11 µM on cdk1/cyclin B (CDC2); 4 ± 0.2 µM in test [1]; 6 ± 1 µM in test [2] (96 hours, read-out: KG1 IC50); 16 ± 1.7 µM in test [2] (setting [4]); 9.3 ± 0.3 µM in test [3]. Besides, the “Recovery of cell number after wash-out” value in test [2] was “substantial recovery of cell number”.
With “5-(methylthio)-7-[N-(3,4-dihydroxybenzyl-N-methyl]amino-3 isopropylpyrazolo[4,3-d]pyrimidine [Compound 26]”, the IC50 against cdk1/cyclin B (CDC2) is greater than 100 µM; in test [1], 16.5 ± 0.8 µM; in test [2] (96 hours, read-out: KG1 IC50) it was 13 ± 0.2 µM; in test [3], 17 ± 2.9 µM.
“5-(3-hydroxypropylamino)-7-[(R,S)-(1-phenyl-2-hydroxyethyl)amino-3-isopropylpyrazolo[4,3-d]pyrimidine [Compound 172]”: the concentration for half-maximal inhibition (IC50) against cdk1/cyclin B (CDC2) is greater than 50 µM; in test [1], 4 ± 0.5 µM; in test [2] (96 hours, read-out: KG1 IC50) it was 3 ± 1 µM; in test [2] (setting [4]), 7 ± 2 µM; in test [3], 8 ± 1.5 µM. Also, the “Recovery of cell number after wash-out” value in test [2] is “substantial recovery of cell number”. Besides, the “Speed of apoptosis induction” value in the test with KG1 cells is “fast”.
In the case of `CCCCCCNc1nc(NC(CO)c2ccccc2)c2[nH]nc(C(C)C)c2n1` (centres unmarked) [Compound 98, 5-(hexylamino)-7-(1-phenyl-2-hydroxyethylamino)-3-isopropylpyrazolo[4,3-d]pyrimidine], the IC50 was found to be 30 µM against cdk1/cyclin B (CDC2); 18 ± 1 µM in test [1] (Homo sapiens, Lymphocyte); 5 ± 0.3 µM in test [2] (Homo sapiens, KG-1, 96 hours, read-out: KG1 IC50); 8 ± 0.4 µM in test [3] (Homo sapiens, MOLT-3).
With “5-(3-aminoethylamino)-7-(3,4-dihydroxybenzyl)amino-3-isopropylpyrazolo[4,3-d]pyrimidine [Compound 201]”, the IC50 against cdk1/cyclin B (CDC2) is 0.5 µM; in test [1], 8 ± 2.2 µM; in test [2] (96 hours, read-out: KG1 IC50), 12 ± 1.3 µM; in test [2] (setting [4]) it was 16 ± 1.3 µM; in test [3] it was 12 ± 1.8 µM. Moreover, the “Recovery of cell number after wash-out” value in test [2] was “substantial recovery of cell number”. Further, the “Incubation time after which apoptosis is detected” value in the test on KG1 cells (flow cytometry, cell line not given) amounted to 6 h. For the same compound, in the test with KG1 cells, the “Speed of apoptosis induction” value was “fast”.

These data come from patent US7745450B2, “Pyrazolo[4,3-d]pyrimidines, processes for their preparation and methods for therapy” (Institute of Experimental Botany, priority 2002, dated 2010).
